Several values for one entry are separate records, joined by “and”; a condition that tells them apart may be missing. Identical values can stand only once. Inconclusive results and toxic doses are left out.
System: CD2F1 mice, L1210 leukemia ip, survival T/C
Test: NCI In Vivo Anticancer Drug Screen. Data for tumor model L1210 Leukemia (intraperitoneal) in CD2F1 (CDF1) mice
Conditions: higher = longer survival
Procedure: The antitumor activity of compounds was measured in mice bearing transplantable tumors. Survival or tumor size were measured and the results are expressed as the measurement made in the treated group (T) divided by the measurement made in the vehicle treated control group (C). The tumor model used in this assay is L1210 Leukemia (intraperitoneal) in CD2F1 (CDF1) mice

[1] = endpoint: mean survival time, dose: 100.0 mg/kg/injection, schedule: Q01DX009 (ip), vehicle: saline sonified
[2] = endpoint: mean survival time, dose: 100.0 mg/kg/injection, schedule: Q04DX003 (ip), vehicle: saline with Tween-80
[3] = endpoint: mean survival time, dose: 200.0 mg/kg/injection, schedule: Q01DX009 (ip), vehicle: saline sonified
[4] = endpoint: mean survival time, dose: 400.0 mg/kg/injection, schedule: Q01DX009 (ip), vehicle: saline sonified
[5] = endpoint: mean survival time, dose: 100.0 mg/kg/injection, schedule: Q01DX001 (ip), vehicle: saline with Tween-80
[6] = endpoint: mean survival time, dose: 200.0 mg/kg/injection, schedule: Q04DX003 (ip), vehicle: saline with Tween-80
[7] = endpoint: mean survival time, dose: 400.0 mg/kg/injection, schedule: Q04DX003 (ip), vehicle: saline with Tween-80
[8] = endpoint: mean survival time, dose: 100.0 mg/kg/injection, schedule: Q01DX009 (ip), vehicle: saline with Tween-80
[9] = endpoint: mean survival time, dose: 200.0 mg/kg/injection, schedule: Q01DX009 (ip), vehicle: saline with Tween-80
[10] = endpoint: mean survival time, dose: 400.0 mg/kg/injection, schedule: Q01DX009 (ip), vehicle: saline with Tween-80

O=C1c2ccccc2C(=O)C1(Cl)C(Cl)c1ccc([N+](=O)[O-])cc1 (stereo unspecified)
T/C (endpoint: mean survival time, dose: 100.0 mg/kg/injection, schedule: Q04DX003 (ip), vehicle: Klucel (hydroxypropylcellulose) (HPC)): 100 % of control
T/C (endpoint: mean survival time, dose: 200.0 mg/kg/injection, schedule: Q04DX003 (ip), vehicle: Klucel (hydroxypropylcellulose) (HPC)): 106 % of control
T/C (endpoint: mean survival time, dose: 400.0 mg/kg/injection, schedule: Q04DX003 (ip), vehicle: Klucel (hydroxypropylcellulose) (HPC)): 106 % of control

O=S(=O)(O)O
T/C [1]: 100 % of control
T/C [2]: 96 % of control
T/C [3]: 97 % of control
T/C [4]: 97 % of control

CC(C)CC(NC(=O)C(O)C(N)Cc1ccccc1)C(=O)O (stereo unspecified)
T/C (endpoint: mean survival time, dose: 10.0 micrograms/kg/injection, schedule: Q01DX005 (oral), vehicle: saline): 96 % of control
T/C (endpoint: mean survival time, dose: 100.0 micrograms/kg/injection, schedule: Q01DX005 (oral), vehicle: saline): 100 % of control
T/C (endpoint: median survival time, dose: 10.0 micrograms/mouse/injection, schedule: Q01DX010 (oral), vehicle: saline): 97 % of control
T/C (endpoint: median survival time, dose: 100.0 micrograms/mouse/injection, schedule: Q01DX010 (oral), vehicle: saline): 95 % of control

Nc1cccc(/C=C/c2nc(N)nc(N)c2-c2ccc(Cl)c(Cl)c2)c1
T/C (endpoint: mean survival time, dose: 75.0 mg/kg/injection, schedule: Q01DX001 (ip), vehicle: saline): 91 % of control
T/C (endpoint: mean survival time, dose: 150.0 mg/kg/injection, schedule: Q01DX001 (ip), vehicle: saline): 92 % of control
T/C (endpoint: mean survival time, dose: 300.0 mg/kg/injection, schedule: Q01DX001 (ip), vehicle: saline): 91 % of control

CC[n+]1ccc(Nc2ccc(NC(=O)c3ccc(Nc4cc[n+](CC)c5ccc([N+](=O)[O-])cc45)cc3)cc2)cc1
T/C (endpoint: mean survival time, dose: 2.0 mg/kg/injection, schedule: Q01DX009 (ip), vehicle: saline sonified): 105 % of control
T/C (endpoint: mean survival time, dose: 4.0 mg/kg/injection, schedule: Q01DX009 (ip), vehicle: saline sonified): 108 % of control
T/C (endpoint: mean survival time, dose: 8.0 mg/kg/injection, schedule: Q01DX009 (ip), vehicle: saline sonified): 123 % of control
T/C (endpoint: mean survival time, dose: 11.0 mg/kg/injection, schedule: Q01DX009 (ip), vehicle: saline): 119 % of control
T/C (endpoint: mean survival time, dose: 25.0 mg/kg/injection, schedule: Q01DX009 (ip), vehicle: saline): 162 % of control
T/C (endpoint: mean survival time, dose: 37.5 mg/kg/injection, schedule: Q01DX009 (ip), vehicle: saline): 203 % of control

Nc1cc(N)nc(N)n1
T/C [5]: 103 % of control
T/C (endpoint: mean survival time, dose: 200.0 mg/kg/injection, schedule: Q01DX001 (ip), vehicle: saline with Tween-80): 105 % of control

CC(=O)Nc1c([N+](=O)[O-])cc2c3c(cccc13)C=C2
T/C [2]: 95 % of control
T/C [6]: 92 % of control
T/C [7]: 104 % of control

O=S1(=O)CC(S(=O)(=O)O)C(S(=O)(=O)O)C1 (stereo unspecified)
T/C (endpoint: mean survival time, dose: 100.0 mg/kg/injection, schedule: Q04DX003 (ip), vehicle: saline): 93 % of control
T/C (endpoint: mean survival time, dose: 200.0 mg/kg/injection, schedule: Q04DX003 (ip), vehicle: saline): 101 % of control
T/C (endpoint: mean survival time, dose: 400.0 mg/kg/injection, schedule: Q04DX003 (ip), vehicle: saline): 93 % of control

O=C1NC(=O)C2C3C=CC(C3)C12 (stereo unspecified)
T/C (endpoint: mean survival time, dose: 12.5 mg/kg/injection, schedule: Q04DX002 (ip), vehicle: saline with Tween-80): 93 % of control
T/C (endpoint: mean survival time, dose: 25.0 mg/kg/injection, schedule: Q04DX002 (ip), vehicle: saline with Tween-80): 93 % of control
T/C (endpoint: mean survival time, dose: 50.0 mg/kg/injection, schedule: Q04DX002 (ip), vehicle: saline with Tween-80): 97 % of control
T/C [1]: 96 % of control
T/C [2]: 94 % of control
T/C [3]: 96 % of control
T/C [6]: 101 % of control
T/C [4]: 98 % of control
T/C [7]: 100 % of control

CC(=O)OC(C)(C)/C=C/C(=O)[C@](C)(O)[C@H]1[C@H](O)C[C@@]2(C)[C@@H]3CC=C4[C@@H](CC[C@H](O)C4(C)C)[C@]3(CO)C(=O)C[C@]12C
T/C (endpoint: mean survival time, dose: 0.6 mg/kg/injection, schedule: Q01DX009 (ip), vehicle: saline with Tween-80): 105 % of control
T/C (endpoint: mean survival time, dose: 0.63 mg/kg/injection, schedule: Q04DX003 (ip), vehicle: saline with Tween-80): 105 % of control
T/C (endpoint: mean survival time, dose: 1.2 mg/kg/injection, schedule: Q01DX009 (ip), vehicle: saline with Tween-80): 105 % of control
T/C (endpoint: mean survival time, dose: 1.25 mg/kg/injection, schedule: Q04DX003 (ip), vehicle: saline with Tween-80): 112 % of control
T/C (endpoint: mean survival time, dose: 2.4 mg/kg/injection, schedule: Q01DX009 (ip), vehicle: saline with Tween-80): 107 % of control
T/C (endpoint: mean survival time, dose: 2.5 mg/kg/injection, schedule: Q04DX003 (ip), vehicle: saline with Tween-80): 114 % of control

[C-]#[N+]C1CCCCC1.[C-]#[N+]C1CCCCC1.[Pd].[S-]c1ccccc1.[S-]c1ccccc1
T/C (endpoint: mean survival time, dose: 3.13 mg/kg/injection, schedule: Q04DX003 (ip), vehicle: distilled water + Tween-80): 102 % of control
T/C (endpoint: mean survival time, dose: 6.25 mg/kg/injection, schedule: Q04DX003 (ip), vehicle: distilled water + Tween-80): 99 % of control
T/C (endpoint: mean survival time, dose: 12.5 mg/kg/injection, schedule: Q04DX003 (ip), vehicle: distilled water + Tween-80): 89 % of control
T/C (endpoint: mean survival time, dose: 25.0 mg/kg/injection, schedule: Q04DX003 (ip), vehicle: distilled water + Tween-80): 91 % of control
T/C (endpoint: mean survival time, dose: 50.0 mg/kg/injection, schedule: Q04DX003 (ip), vehicle: distilled water + Tween-80): 95 % of control
T/C (endpoint: mean survival time, dose: 100.0 mg/kg/injection, schedule: Q04DX003 (ip), vehicle: distilled water + Tween-80): 89 % of control
T/C (endpoint: mean survival time, dose: 200.0 mg/kg/injection, schedule: Q04DX003 (ip), vehicle: distilled water + Tween-80): 95 % of control

O=C([CH-]C(=O)C(F)(F)F)c1ccccc1.O=C([CH-]C(=O)C(F)(F)F)c1ccccc1.O=C([CH-]C(=O)C(F)(F)F)c1ccccc1.O=C([CH-]C(=O)C(F)(F)F)c1ccccc1.[Eu+3].c1ccncc1
T/C (endpoint: mean survival time, dose: 12.5 mg/kg/injection, schedule: Q01DX009 (ip), vehicle: Klucel (hydroxypropylcellulose) (HPC)): 95 % of control and 101 % of control
T/C (endpoint: mean survival time, dose: 25.0 mg/kg/injection, schedule: Q01DX009 (ip), vehicle: Klucel (hydroxypropylcellulose) (HPC)): 101 % of control
T/C (endpoint: mean survival time, dose: 50.0 mg/kg/injection, schedule: Q01DX009 (ip), vehicle: Klucel (hydroxypropylcellulose) (HPC)): 89 % of control and 106 % of control
T/C (endpoint: mean survival time, dose: 100.0 mg/kg/injection, schedule: Q01DX009 (ip), vehicle: Klucel (hydroxypropylcellulose) (HPC)): 97 % of control and 109 % of control
T/C (endpoint: mean survival time, dose: 200.0 mg/kg/injection, schedule: Q01DX009 (ip), vehicle: Klucel (hydroxypropylcellulose) (HPC)): 95 % of control and 100 % of control
T/C (endpoint: mean survival time, dose: 400.0 mg/kg/injection, schedule: Q01DX009 (ip), vehicle: Klucel (hydroxypropylcellulose) (HPC)): 97 % of control and 100 % of control

O=P(Oc1ccccc1)(Oc1ccccc1)N(CCCl)CCCl
T/C (endpoint: mean survival time, dose: 12.5 mg/kg/injection, schedule: Q01DX009 (ip), vehicle: water): 101 % of control
T/C (endpoint: mean survival time, dose: 25.0 mg/kg/injection, schedule: Q01DX009 (ip), vehicle: water): 100 % of control and 108 % of control
T/C (endpoint: mean survival time, dose: 31.25 mg/kg/injection, schedule: Q01DX001 (ip), vehicle: distilled water + Tween-80): 104 % of control
T/C (endpoint: mean survival time, dose: 50.0 mg/kg/injection, schedule: Q01DX009 (ip), vehicle: water): 104 % of control
T/C (endpoint: mean survival time, dose: 62.5 mg/kg/injection, schedule: Q01DX001 (ip), vehicle: distilled water + Tween-80): 107 % of control
T/C (endpoint: mean survival time, dose: 100.0 mg/kg/injection, schedule: Q01DX009 (ip), vehicle: water): 161 % of control
T/C (endpoint: mean survival time, dose: 125.0 mg/kg/injection, schedule: Q01DX001 (ip), vehicle: distilled water + Tween-80): 102 % of control
T/C (endpoint: mean survival time, dose: 250.0 mg/kg/injection, schedule: Q01DX001 (ip), vehicle: distilled water + Tween-80): 119 % of control

O=C(Nc1cccc2ccccc12)OC1CCCCC1Br (stereo unspecified)
T/C (endpoint: mean survival time, dose: 6.25 mg/kg/injection, schedule: Q01DX001 (ip), vehicle: saline with Tween-80): 100 % of control
T/C (endpoint: mean survival time, dose: 12.5 mg/kg/injection, schedule: Q01DX001 (ip), vehicle: saline with Tween-80): 92 % of control
T/C (endpoint: mean survival time, dose: 25.0 mg/kg/injection, schedule: Q01DX001 (ip), vehicle: saline with Tween-80): 100 % of control
T/C (endpoint: mean survival time, dose: 50.0 mg/kg/injection, schedule: Q01DX001 (ip), vehicle: saline with Tween-80): 93 % of control
T/C [5]: 89 % of control

O=S(=O)(OCC1CC2CCC1CC2)c1ccc(Br)cc1 (stereo unspecified)
T/C [8]: 96 % of control
T/C [2]: 95 % of control
T/C [9]: 112 % of control
T/C [6]: 97 % of control
T/C [10]: 102 % of control
T/C [7]: 95 % of control

C=C1C(=O)OC2CC/C=C\CCC12 (stereo unspecified)
T/C (endpoint: mean survival time, dose: 50.0 mg/kg/injection, schedule: Q01DX009 (ip), vehicle: saline): 105 % of control
T/C (endpoint: mean survival time, dose: 100.0 mg/kg/injection, schedule: Q01DX009 (ip), vehicle: saline): 97 % of control
T/C (endpoint: mean survival time, dose: 200.0 mg/kg/injection, schedule: Q01DX009 (ip), vehicle: saline): 102 % of control

OC1CCCC/C1=C/C=C/c1ccccc1 (stereo unspecified)
T/C [8]: 92 % of control and 91 % of control
T/C [9]: 94 % of control and 92 % of control
T/C [10]: 93 % of control

Source: PubChem BioAssay AID256 (DTP/NCI, 2004)
